Experiments:
[1] = tested on: A549; test: Combination assay, A549; format: cell-based
Description: (§1) The combination index (CI) of combinations of certain example compounds and various chemotherapeutic agents in the CellTitetI-Glo® in vitro cell proliferation assays may be tested. A combination index score is calculated by the Chou and Talalay method (CalcuSyn software, Biosoft). The strength of synergy is scored using the ranking system Chou and Talalay: CI less than 0.8 indicates synergy, CI between 0.8 and 1.2 indicates additivity and CI greater than 1.2 indicates antagonism.
(§2) The EC50 values of representative combinations are also calculated. The individually measured EC50 values of the chemotherapeutic agent and the example compounds are compared to the EC50 value of the combination. The cell lines are characterised by tumor type. Combination assays are performed as described in: “Pim 1 kinase inhibitor ETP-45299 suppresses cellular proliferation and synergizes with PI3K inhibition”. Blanco-Aparicio, Carmen; Collazo, Ana Maria Garcia; Oyarzabal, Julen; Leal, Juan F.; Albaran, Maria Isabel; Lima, Francisco Ramos; Pequeno, Belen; Ajenjo, Nuria; Becerra, Mercedes; Alfonso, Patricia; Reymundo, Maria Isabel; Palacios, Irene; Mateos, Genoveva; Quinones, Helena; Corrionero, Ana; Carnero, Amancio; Pevarello, Paolo; Lopez, Ana Rodriguez; Fominaya, Jesus; Pastor, Joaquin; Bischoff, James R. Cancer Letters (Shannon, Ireland) 2011, 300(2), 145-153

[2] = tested on: BXPC-3; test: Combination assay, BXPC-3; format: cell-based
Description: as §1, §2

[3] = tested on: SW620 cells; test: Colony formation assay; format: cell-based, human; conditions: SW620 cells treated 11 days
Description: The in vitro potency of the compounds was measured by colony formation assays. SW620 cells in logarithmic growth phase are plated at 800 cells per well in 6-well plates (Solmeglas 13118) in RPMI media (Sigma-Aldrich R6504) supplemented with 10% foetal bovine serum (Sigma-Aldrich F7524), Penicillin/Streptomycin solution diluted 1:100 (Gibco 15070-063), and fungizone (Gibco, 15290-018), and allowed to adhere overnight at 37° C. in 5% CO2. Compounds are then added to the cell media from a final concentration of 10 μM in 10-fold serial dilutions and the cells are incubated at 37° C. in 5% CO2. Every three days the medium is changed by fresh medium and compounds are added again. After 11 days, colonies are washed with PBS and fixed in 0.5% crystal violet (Sigma-Aldrich Ref. V5265), 6% glutaraldehide (Sigma-Aldrich Ref. G5882) for 30 minutes. After extensive washing, colonies are dissolved in 2 ml of 10% glacial acetic acid (Sigma-Aldrich Ref. 537020) and absorbance at 590 nm is measured in the Victor 1420 Multilabel Counter (Perkin Elmer). The absorbance in cells treated with DMSO is taken as hundred percent of proliferation. The percentage of proliferation is finally plotted against concentration for each compound and EC50s for colony formation inhibition are calculated using ActivityBase from IDBS.

[4] = tested on: SW620; test: Combination assay, SW620; format: cell-based, human
Method in brief: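 Cells treated with example compounds combined with chemotherapeutic agents, proliferation read by CellTiter-Glo. Combination index from the Chou–Talalay method (CI <0.8 synergy, 0.8–1.2 additivity, >1.2 antagonism); EC50 of the combination also derived alongside single-agent EC50s.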

[5] = tested on: SKMEL19; test: Combination assay, SKMEL19; format: cell-based
Description: as §1, §2

[6] = tested on: panel of 468 kinases; test: KINOMEscan kinase panel selectivity score; format: binding
Source text: Compounds of the invention may have the advantage that they are effective inhibitors of protein kinases (e.g. CDK8 and/or haspin). […] For instance, the compounds of the invention may be selective inhibitors of certain protein or lipid kinases. […] Compounds that are selective inhibitors may be identified by screening in a 453-468 kinases panel (KINOMEscan™ from DiscoveRx). For example, selective inhibitors may show a selectivity score of S(20)<0.05.
Selectivity Score (or S-score) is a quantitative measure of a compound's selectivity. It is calculated by dividing the number of kinases to which a compound binds by the total number of distinct kinases tested (i.e. S=Number of hits/Number of assays).

[7] = A549, combination with Elesclomol
[8] = BXPC-3, combination with Crizotinib
[9] = BXPC-3, combination with Elesclomol
[10] = SW620, combination with ABT-751
[11] = SW620, combination with Alisertib
[12] = SW620, combination with Crizotinib
[13] = SW620, combination with Elesclomol
[14] = SW620, combination with Oxaliplatin
[15] = SKMEL19, combination with Crizotinib
[16] = SKMEL19, combination with Elesclomol

GI50 ([1]; Homo sapiens, A549, example compound alone, read-out: CDK8 inh GI50): 5 µM | GI50 ([2]; Homo sapiens, BXPC-3, example compound alone, read-out: CDK8 inh GI50): 5 µM | EC50 ([3]; Homo sapiens, SW-620, 264 h, read-out: mean EC50, colony forming assay): 0.051 ± 0.069 µM | GI50 ([4]; Homo sapiens, SW-620, SW620, example compound alone, read-out: CDK8 inh GI50): 4 µM | GI50 ([5]; Homo sapiens, SK-MEL19, SKMEL19, example compound alone, read-out: CDK8 inh GI50): 1.25 µM | Selectivity score S(20) [6]: 0.038
Compound: CCn1c(C(N)=O)cc2c1-c1ccncc1OC2(C)C [Example 43]
Combination index (CI) [1, 7]: 0.63 | Synergy [1, 7]: ++ (0.3 < CI < 0.7 (++)) | Combination index (CI) [2, 8]: 0.72 | Synergy [2, 8]: ++ (0.3 < CI < 0.7 (++)) | Combination index (CI) [2, 9]: 0.25 | Synergy [2, 9]: ++ (0.3 < CI < 0.7 (++)) | effect in colony forming assay [3]: dose-dependent effect | Combination index (CI) [4, 10]: 0.18 | Synergy [4, 10]: +++ (0.1 < CI < 0.3 (+++)) | Combination index (CI) [4, 11]: 0.52 | Synergy [4, 11]: ++ (0.3 < CI < 0.7 (++)) | Combination index (CI) [4, 12]: 0.65 | Synergy [4, 12]: ++ (0.3 < CI < 0.7 (++)) | Combination index (CI) [4, 13]: 0.05 | Synergy [4, 13]: ++++ (CI < 0.1 (++++)) | Combination index (CI) [4, 14]: 0.53 | Synergy [4, 14]: ++ (0.3 < CI < 0.7 (++)) | Combination index (CI) ([4]; SW620, combination with Taxol): 0.28 | Synergy ([4]; SW620, combination with Taxol): +++ (0.1 < CI < 0.3 (+++)) | Combination index (CI) [5, 15]: 0.55 | Synergy [5, 15]: ++ (0.3 < CI < 0.7 (++)) | Combination index (CI) [5, 16]: 0.49 | Synergy [5, 16]: ++ (0.3 < CI < 0.7 (++))

From patent publication US10208056B2, “Condensed tricyclic compounds as protein kinase inhibitors” (FUNDACIÓN DEL SECTOR PÚBLICO ESTATAL CENTRO NACIONAL DE …, priority 2015, dated 2019)
